Results taken from patent US8148391B2 (Cephalon, Inc., priority 2006, dated 2012).

Assays:
[1] = molecular target: T1, baculovirus-expressed ALK (Homo sapiens, UniProt Q9UM73); experiment: ALK Kinase Assay (ELISA-type, time-resolved fluorescence); assay type: biochemical; conditions: ALK kinase inhibition, 1 μM ATP (Km level); read-out: ALK Activity
T1 construct: host or cells: baculovirus expression system
In short: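 Wells were coated with phospholipase C-γ at 10 μg/mL in Tris-buffered saline. Adding 30 ng/ml enzyme started the reaction, which ran at 37° C for 15 minutes before Eu-N1 PT66 antibody detection. Percent inhibition versus log10 concentration gave IC50 by variable-slope fit.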

[2] = molecular target: T2, c-Met (cytoplasmic domain) (Homo sapiens, UniProt P08581); experiment: c-Met Kinase Assay (same methods as for ALK, with modifications); assay type: biochemical; conditions: c-Met kinase inhibition, 1 μM ATP (Km level); read-out: cMet Activity
T2 construct: 10 ng/mL c-Met (cytoplasmic domain, Invitrogen Corporation #PV3143); purchased Invitrogen Corporation PV3143
In short: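 Steps: coat wells with PLC-γ (10 μg/mL, Tris-buffered saline); add 10 ng/mL c-Met cytoplasmic domain to initiate; incubate 15 min, 37° C; detect phosphoproduct via Eu-N1 PT66 antibody.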

T2 sequence (P08581 956-1390 limits assumed): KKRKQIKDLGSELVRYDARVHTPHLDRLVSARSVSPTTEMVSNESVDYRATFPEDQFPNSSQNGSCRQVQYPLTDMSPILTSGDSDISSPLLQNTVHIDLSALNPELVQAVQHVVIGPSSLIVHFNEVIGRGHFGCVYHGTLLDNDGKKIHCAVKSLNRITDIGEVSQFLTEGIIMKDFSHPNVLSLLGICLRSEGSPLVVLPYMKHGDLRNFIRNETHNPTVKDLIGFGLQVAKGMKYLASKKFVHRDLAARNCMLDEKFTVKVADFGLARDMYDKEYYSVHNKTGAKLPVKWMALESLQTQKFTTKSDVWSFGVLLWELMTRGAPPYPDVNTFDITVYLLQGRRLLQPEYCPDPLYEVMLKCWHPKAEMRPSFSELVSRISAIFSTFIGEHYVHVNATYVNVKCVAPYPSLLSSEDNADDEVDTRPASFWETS
T1 sequence (Q9UM73 19-1620): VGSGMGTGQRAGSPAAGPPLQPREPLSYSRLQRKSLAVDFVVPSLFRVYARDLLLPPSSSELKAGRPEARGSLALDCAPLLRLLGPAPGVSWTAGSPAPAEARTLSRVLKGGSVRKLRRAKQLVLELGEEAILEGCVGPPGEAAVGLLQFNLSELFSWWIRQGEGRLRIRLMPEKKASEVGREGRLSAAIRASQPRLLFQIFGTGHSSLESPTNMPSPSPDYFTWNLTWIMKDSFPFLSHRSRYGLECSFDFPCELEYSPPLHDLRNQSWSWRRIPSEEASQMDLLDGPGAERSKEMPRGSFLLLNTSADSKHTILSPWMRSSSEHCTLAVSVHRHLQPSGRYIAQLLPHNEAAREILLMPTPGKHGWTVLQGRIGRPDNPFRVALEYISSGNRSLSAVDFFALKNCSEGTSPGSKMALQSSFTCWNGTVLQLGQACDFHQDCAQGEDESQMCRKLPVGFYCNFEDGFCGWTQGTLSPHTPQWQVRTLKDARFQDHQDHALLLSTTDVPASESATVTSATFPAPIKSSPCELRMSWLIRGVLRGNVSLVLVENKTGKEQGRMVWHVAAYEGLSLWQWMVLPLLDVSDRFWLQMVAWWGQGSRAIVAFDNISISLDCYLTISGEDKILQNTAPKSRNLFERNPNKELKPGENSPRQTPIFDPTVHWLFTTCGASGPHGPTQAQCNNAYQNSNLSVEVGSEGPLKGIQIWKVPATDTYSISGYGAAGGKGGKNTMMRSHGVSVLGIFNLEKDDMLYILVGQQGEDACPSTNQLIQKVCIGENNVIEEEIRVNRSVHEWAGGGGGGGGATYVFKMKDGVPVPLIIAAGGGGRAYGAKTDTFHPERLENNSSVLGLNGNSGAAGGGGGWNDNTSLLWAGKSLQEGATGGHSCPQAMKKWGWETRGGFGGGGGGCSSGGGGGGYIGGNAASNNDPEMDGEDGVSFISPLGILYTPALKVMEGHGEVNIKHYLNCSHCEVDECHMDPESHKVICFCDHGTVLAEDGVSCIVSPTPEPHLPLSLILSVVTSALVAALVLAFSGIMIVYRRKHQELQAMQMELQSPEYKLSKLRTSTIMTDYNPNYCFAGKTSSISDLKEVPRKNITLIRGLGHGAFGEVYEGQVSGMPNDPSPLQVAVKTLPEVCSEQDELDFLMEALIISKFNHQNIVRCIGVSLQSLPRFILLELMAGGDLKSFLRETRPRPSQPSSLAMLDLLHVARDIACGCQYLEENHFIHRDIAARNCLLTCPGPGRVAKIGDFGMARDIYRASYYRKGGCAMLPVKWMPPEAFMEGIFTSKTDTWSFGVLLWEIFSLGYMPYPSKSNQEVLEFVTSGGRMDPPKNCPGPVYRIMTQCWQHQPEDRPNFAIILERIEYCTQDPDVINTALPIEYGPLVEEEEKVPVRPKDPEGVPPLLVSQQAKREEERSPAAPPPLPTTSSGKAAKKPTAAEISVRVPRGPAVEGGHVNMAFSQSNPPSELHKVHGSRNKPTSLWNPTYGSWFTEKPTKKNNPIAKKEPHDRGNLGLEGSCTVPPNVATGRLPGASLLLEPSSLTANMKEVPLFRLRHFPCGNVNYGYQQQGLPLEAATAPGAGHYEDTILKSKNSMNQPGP

SMILES	IC50 [1]	IC50 [2]
COc1cc(N2CCOCC2)ccc1Nc1nc(Nc2ccc3c(c2)CCN(C[C@H](O)C(F)(F)F)CC3)ncc1Cl [Example 330, (S)-3-{7-[5-Chloro-4-(2-methoxy-4-morpholin-4-yl-phenylamino)-pyrimidin-2-ylamino]-1,2,4,5-tetrahydro-benzo[d]azepin-3-yl}-1,1,1-trifluoro-propan-2-ol]	< 100 nM	> 10000 nM
NC(=O)C1C2CCC(C2)C1Nc1nc(Nc2ccc3c(c2)CCN(CC(O)C(F)(F)F)CC3)ncc1Cl [Example 331, (2-exo,3-exo)-3-{5-Chloro-2-[3-((S)-3,3,3-trifluoro-2-hydroxy-propyl)-2,3,4,5-tetrahydro-1H-benzo[d]azepin-7-ylamino]-pyrimidin-4-ylamino}-bicyclo[2.2.1]heptane-2-carboxylic acid amide]	< 100 nM	100 to 1000 nM
CNC(=O)c1cccc(F)c1Nc1nc(Nc2ccc3c(c2)CCN(C[C@@H](O)C(F)(F)F)CC3)ncc1Cl [Example 332, 2-{5-Chloro-2-[3-((R)-3,3,3-trifluoro-2-hydroxy-propyl)-2,3,4,5-tetrahydro-1H-benzo[d]azepin-7-ylamino]-pyrimidin-4-ylamino}-3-fluoro-N-methyl-benzamide]	< 100 nM	< 100 nM
COc1cc(N2CCOCC2)ccc1Nc1nc(Nc2ccc3c(c2)CCN(C[C@@H](O)C(F)(F)F)CC3)ncc1Cl [Example 333, (R)-3-{7-[5-Chloro-4-(2-methoxy-4-morpholin-4-yl-phenylamino)-pyrimidin-2-ylamino]-1,2,4,5-tetrahydro-benzo[d]azepin-3-yl}-1,1,1-trifluoro-propan-2-ol]	< 100 nM	1000 to 10000 nM
CNC(=O)c1ccccc1Nc1nc(Nc2ccc3c(c2)CCN(C[C@H](OC)C(F)(F)F)CC3)ncc1Cl [Example 335, 2-{5-Chloro-2-[3-((S)-3,3,3-trifluoro-2-methoxy-propyl)-2,3,4,5-tetrahydro-1H-benzo[d]azepin-7-ylamino]-pyrimidin-4-ylamino}-N-methyl-benzamide]	< 100 nM	< 100 nM
CO[C@@H](CN1CCc2ccc(Nc3ncc(Cl)c(N[C@@H]4CCCC[C@H]4NS(C)(=O)=O)n3)cc2CC1)C(F)(F)F [Example 336, N-((1R,2R)-2-{5-Chloro-2-[3-((S)-3,3,3-trifluoro-2-methoxy-propyl)-2,3,4,5-tetrahydro-1H-benzo[d]azepin-7-ylamino]-pyrimidin-4-ylamino}-cyclohexyl)-methanesulfonamide]	< 100 nM	100 to 1000 nM
COc1cc(N2CCOCC2)ccc1Nc1nc(Nc2ccc3c(c2)CCN(C[C@H](OC)C(F)(F)F)CC3)ncc1Cl [Example 337, 5-Chloro-N*4*-(2-methoxy-4-morpholin-4-yl-phenyl)-N*2*-[-((S)-3,3,3-trifluoro-2-methoxy-propyl)-2,3,4,5-tetrahydro-1H-benzo[d]azepin-7-yl]-pyrimidine-2,4-diamine]	< 100 nM	> 10000 nM
CCNC(=O)c1ccccc1Nc1nc(Nc2ccc3c(c2)C(C)(C)CCC(=O)N3)ncc1Cl [Example 339]	< 100 nM	< 100 nM
CC(C)NC(=O)c1ccccc1Nc1nc(Nc2ccc3c(c2)C(C)(C)CCC(=O)N3)ncc1Cl [Example 340]	< 100 nM	100 to 1000 nM
CC1(C)CCC(=O)Nc2ccc(Nc3ncc(Cl)c(Nc4ccccc4C(=O)NC4CC4)n3)cc21 [Example 341]	< 100 nM	100 to 1000 nM
COCCN1CCc2ccc(Nc3ncc(Cl)c(Nc4ccccc4C(=O)NC(C)C)n3)cc2CC1 [Example 342, 2-{5-Chloro-2-[3-(2-methoxy-ethyl)-2,3,4,5-tetrahydro-1H-benzo[d]azepin-7-ylamino]-pyrimidin-4-ylamino}-N-isopropyl-benzamide]	< 100 nM	100 to 1000 nM
CCNC(=O)c1ccccc1Nc1nc(Nc2ccc3c(c2)CCN(CCOC)CC3)ncc1Cl [Example 343, 2-{5-Chloro-2-[3-(2-methoxy-ethyl)-2,3,4,5-tetrahydro-1H-benzo[d]azepin-7-ylamino]-pyrimidin-4-ylamino}-N-ethyl-benzamide]	< 100 nM	< 100 nM
COCCN1CCc2ccc(Nc3ncc(Cl)c(Nc4ccccc4C(=O)NC4CC4)n3)cc2CC1 [Example 344, 2-{5-Chloro-2-[3-(2-methoxy-ethyl)-2,3,4,5-tetrahydro-1H-benzo[d]azepin-7-ylamino]-pyrimidin-4-ylamino}-N-cyclopropyl-benzamide]	< 100 nM	100 to 1000 nM
CC(=O)c1ccccc1Nc1nc(Nc2ccc3c(c2)CCCC(=O)N3C)ncc1Cl [Example 351, 7-[4-(2-Acetyl-phenylamino)-5-chloro-pyrimidin-2-ylamino]-1-methyl-1,3,4,5-tetrahydro-benzo[b]azepin-2-one]	< 100 nM	< 100 nM
CNC(=O)c1cccc(Cl)c1Nc1nc(Nc2ccc3c(c2)CCCC(=O)N3C)ncc1Cl [Example 352, 3-Chloro-2-[5-chloro-2-(1-methyl-2-oxo-2,3,4,5-tetrahydro-1H-benzo[b]azepin-7-ylamino)-pyrimidin-4-ylamino]-N-methyl-benzamide]	1000 to 10000 nM	< 100 nM
CN1C(=O)CCCc2cc(Nc3ncc(Cl)c(Nc4ccc(N5CCCCC5)cc4C(N)=O)n3)ccc21 [Example 354, 2-[5-Chloro-2-(1-methyl-2-oxo-2,3,4,5-tetrahydro-1H-benzo[b]azepin-7-ylamino)-pyrimidin-4-ylamino]-5-piperidin-1-yl-benzamide]	< 100 nM	< 100 nM
CN1C(=O)CCCc2cc(Nc3ncc(Cl)c(Nc4ccc(N5CCOCC5)cc4C(N)=O)n3)ccc21 [Example 355, 2-[5-Chloro-2-(1-methyl-2-oxo-2,3,4,5-tetrahydro-1H-benzo[b]azepin-7-ylamino)pyrimidin-4-ylamino]-5-morpholin-4-yl-benzamide]	< 100 nM	100 to 1000 nM
CNC(=O)c1cccc(F)c1Nc1nc(Nc2ccc3c(c2)CCCC(=O)N3CCOC)ncc1Cl [Example 356, 2-{5-Chloro-2-[1-(2-methoxy-ethyl)-2-oxo-2,3,4,5-tetrahydro-1H-benzo[b]azepin-7-ylamino]-pyrimidin-4-ylamino}-3-fluoro-N-methyl-benzamide]	< 100 nM	< 100 nM
CNC(=O)c1cccc(Cl)c1Nc1nc(Nc2ccc3c(c2)CCCC(=O)N3CCOC)ncc1Cl [Example 357, 3-Chloro-2-{5-chloro-2-[1-(2-methoxy-ethyl)-2-oxo-2,3,4,5-tetrahydro-1H-benzo[b]azepin-7-ylamino]-pyrimidin-4-ylamino}-N-methyl-benzamide]	1000 to 10000 nM	< 100 nM
CCN1C(=O)CCCc2ccc(Nc3ncc(Cl)c(Nc4c(F)cccc4C(=O)NC)n3)cc21 [Example 358, 2-[5-Chloro-2-(1-ethyl-2-oxo-2,3,4,5-tetrahydro-1H-benzo[b]azepin-8-ylamino)pyrimidin-4-ylamino]-3-fluoro-N-methyl-benzamide]	< 100 nM	< 100 nM
CCN1C(=O)CCCc2ccc(Nc3ncc(Br)c(Nc4c(F)cccc4C(=O)NC)n3)cc21 [Example 359, 2-[5-Bromo-2-(1-ethyl-2-oxo-2,3,4,5-tetrahydro-1H-benzo[b]azepin-8-ylamino)-pyrimidin-4-ylamino]-3-fluoro-N-methyl-benzamide]	< 100 nM	< 100 nM
CCN1C(=O)CCCc2ccc(Nc3ncc(Cl)c(Nc4c(C)cccc4C(=O)NC)n3)cc21 [Example 360, 2-[5-Chloro-2-(1-ethyl-2-oxo-2,3,4,5-tetrahydro-1H-benzo[b]azepin-8-ylamino)-pyrimidin-4-ylamino]-3,N-dimethyl-benzamide]	1000 to 10000 nM	< 100 nM
CNC(=O)c1cccc(C)c1Nc1nc(Nc2ccc3c(c2)N(CCOC)C(=O)CCC3)ncc1Cl [Example 361, 2-{5-Chloro-2-[1-(2-methoxy-ethyl)-2-oxo-2,3,4,5-tetrahydro-1H-benzo[b]azepin-8-ylamino]-pyrimidin-4-ylamino}-3,N-dimethyl-benzamide]	1000 to 10000 nM	< 100 nM
CNC(=O)c1ccccc1Nc1nc(Nc2cc3c(cc2OC)CCN(CC(=O)N(C)C)CC3)ncc1Br [Example 376, 2-[5-Bromo-2-(3-dimethylcarbamoylmethyl-8-methoxy-2,3,4,5-tetrahydro-1H-benzo[d]azepin-7-ylamino)-pyrimidin-4-ylamino]-N-methyl-benzamide]	< 100 nM	1000 to 10000 nM
CC1(C)CCC(=O)Nc2ccc(Nc3ncc(Cl)c(N[C@@H]4CCCC[C@H]4NS(C)(=O)=O)n3)cc21 [Example 383, N-{(1R,2R)-2-[5-Chloro-2-(5,5-dimethyl-2-oxo-2,3,4,5-tetrahydro-1H-benzo[b]azepin-7-ylamino)-pyrimidin-4-ylamino]-cyclohexyl}-methanesulfonamide]	< 100 nM	1000 to 10000 nM
CNC(=O)c1ccccc1Nc1nc(Nc2ccc3c(c2)C(C)(C)CCC(=O)N3C)ncc1Cl [Example 384, 2-[5-Chloro-2-(1,5,5-trimethyl-2-oxo-2,3,4,5-tetrahydro-1H-benzo[b]azepin-7-ylamino)-pyrimidin-4-ylamino]-N-methyl-benzamide]	< 100 nM	< 100 nM
CN1C(=O)CCC(C)(C)c2cc(Nc3ncc(Cl)c(N[C@@H]4CCCC[C@H]4NS(C)(=O)=O)n3)ccc21 [Example 385, N-{(1R,2R)-2-[5-Chloro-2-(1,5,5-trimethyl-2-oxo-2,3,4,5-tetrahydro-1H-benzo[b]azepin-7-ylamino)-pyrimidin-4-ylamino]-cyclohexyl}-methanesulfonamide]	< 100 nM	100 to 1000 nM
